In paper PMC7196836, “Molecular analysis of the ribosome recycling factor ABCE1 bound to the 30S post‐splitting complex” (The EMBO Journal, 2020):

Biological target: T1, ABCE1 (Saccharolobus solfataricus, UniProt Q980K5, L353Y)
T1 construct: gene SSO0287; recombinant in E. coli (pSA4 plasmid), C-terminal His6 tag; FeS cluster domain kept
Assay: Malachite Green ATPase assay (phosphate release)
Assay type: biochemical
Conditions: 2 mM ATP, 2.5 mM MgCl2, 150 mM NaCl, Hepes pH 7.5, 80 °C; no ribosomes

SMILES: Nc1ncnc2c1ncn2[C@@H]1O[C@H](COP(=O)(O)OP(=O)(O)OP(=O)(O)O)[C@@H](O)[C@H]1O [ATP]
- ATP turnover per ABCE1: ATPase activity of ABCE1^L353Y (Appendix Fig S3) were comparable to wild type
